A word on the IC50: it is the midpoint of a concentration-inhibition curve. Read a high IC50 as weaker potency in that assay.

Counter-ions that a name gives are not always drawn. A value given as a limit tells only on which side of the number the result lay.

The source of these data is US7816535B2, “Vinyl-phenyl derivatives for inflammation and immune-related uses” (Synta Pharmaceuticals Corp., priority 2006, dated 2010).

The subject of the assay is IL-2 production. The assay is described as follows: Inhibition of IL-2 production in PHA-activated Jurkat cells (ELISA). Type of assay: cell-based. The following applies: Homo sapiens, Jurkat, 20 h, PHA 2.5 μg/mL, IL-2 ELISA. The protocol: Jurkat cells were placed in a 96 well plate (0.5 million cells per well in 1% FBS medium) then a test compound of this invention was added at different concentrations. After 10 minutes, the cells were activated with PHA (final concentration 2.5 μg/mL) and incubated for 20 hours at 37° C. under CO2. The final volume was 200 μL. Following incubation, the cells were centrifuged and the supernatants collected and stored at −70° C. prior to assaying for IL-2 production. A commercial ELISA kit (IL-2 Eli-pair, Diaclone Research, Besancon, France) was used to detect production of IL-2, from which dose response curves were obtained. The IC50 value was calculated as the concentration at which 50% of maximum IL-2 production after stimulation was inhibited versus a non-stimulation control.
(In general: ELISA stands for enzyme-linked immunosorbent assay.)
`CC1=C(c2ccc(NC(=O)c3ccncc3C)cc2)CN(c2nccs2)CC1` [Compound 59, N-[4-(1-thiazol-2-yl-4-methyl-1,2,5,6-tetrahydro-pyridin-3-yl)-phenyl]-3-methyl-isonicotinamide] gave a concentration for half-maximal inhibition (IC50) of 48.9 nM.

Turning to `CCS(=O)(=O)N1CCC(C)=C(c2ccc(NC(=O)c3ccncc3C)cc2)C1` [Compound 60, N-[4-(1-ethanesulfonyl-4-methyl-1,2,5,6-tetrahydro-pyridin-3-yl)-phenyl]-3-methyl-isonicotinamide], the half-inhibitory concentration (IC50) was found to be 229 nM. The figure for `CC1=C(c2ccc(NC(=O)c3ccncc3C)cc2)CN(S(=O)(=O)c2ccccc2)CC1` [Compound 61, N-[4-(1-phenylsulfonyl-4-methyl-1,2,5,6-tetrahydro-pyridin-3-yl)-phenyl]-3-methyl-isonicotinamide] is 164 nM; for `CC(=O)N1CCC(C)=C(c2ccc(NC(=O)c3c(F)cccc3F)cc2)C1` [Compound 62, 2,6-Difluoro-N-[4-(1-acetyl-4-methyl-1,2,5,6-tetrahydro-pyridin-3-yl)-phenyl]-benzamide] it is 431 nM. For `CC1=C(c2ccc(NC(=O)c3c(F)cccc3F)cc2)CN(C(=O)C2CC2)CC1` [Compound 63, 2,6-Difluoro-N-[4-(1-cyclopropylcarbonyl-4-methyl-1,2,5,6-tetrahydro-pyridin-3-yl)-phenyl]-benzamide] the value was 182 nM. Molecule `CC1=C(c2ccc(NC(=O)c3c(F)cccc3F)cc2)CN(C(=O)c2cccnc2)CC1` [Compound 64] had an IC50 of 962 nM. As to `CC1=C(c2ccc(NC(=O)c3ccncc3F)cc2)CN(c2nccs2)CC1` [Compound 65, N-[4-(1-thiazol-2-yl-4-methyl-1,2,5,6-tetrahydro-pyridin-3-yl)-phenyl]-3-fluoro-isonicotinamide], the IC50 was 7.7 nM. `CC1=C(c2ccc(NC(=O)c3ccncc3F)cc2)CN(c2ccccn2)CC1` [Compound 66, N-[4-(1-pyridin-2-yl-4-methyl-1,2,5,6-tetrahydro-pyridin-3-yl)-phenyl]-3-fluoro-isonicotinamide] showed a 50% inhibitory concentration (IC50) of 42.1 nM. `CC1=C(c2ccc(NC(=O)c3c(F)cccc3F)cc2)CN(c2nc3ccccc3o2)CC1` [Compound 68, 2,6-Difluoro-N-[4-(1-benzooxazol-2-yl-4-methyl-1,2,5,6-tetrahydro-pyridin-3-yl)-phenyl]-benzamide]: the IC50 was 95.3 nM. As to `CC1=C(c2ccc(NC(=O)c3ccncc3F)cc2)CN(CC2CC2)CC1` [Compound 69, N-[4-(1-cyclopropylmethyl-4-methyl-1,2,5,6-tetrahydro-pyridin-3-yl)-phenyl]-3-fluoro-isonicotinamide], the half-inhibitory concentration (IC50) was > 1000 nM.

Molecule `CC1=C(c2ccc(NC(=O)c3c(F)cccc3F)cc2)CN(c2ncco2)CC1` [Compound 70, 2,6-Difluoro-N-[4-(1-oxazol-2-yl-4-methyl-1,2,5,6-tetrahydro-pyridin-3-yl)-phenyl]-benzamide] came in with an IC50 of 12.4 nM. The figure for `CC1=C(c2ccc(NC(=O)c3ccncc3F)cc2)CN(c2ncco2)CC1` [Compound 71, N-[4-(1-oxazol-2-yl-4-methyl-1,2,5,6-tetrahydro-pyridin-3-yl)-phenyl]-3-fluoro-isonicotinamide] is 44 nM; for `CC1=C(c2ccc(NC(=O)c3c(F)cccc3F)nc2)CN(c2nccs2)CC1` [Compound 72, 2,6-Difluoro-N-[5-(1-thiazol-2-yl-4-methyl-1,2,5,6-tetrahydro-pyridin-3-yl)-pyridin-2-yl]-benzamide, hydrochloride] it is 35 nM; for `CC1=C(c2ccc(NC(=O)c3c(F)cccc3F)cc2)CN(C(N)=S)CC1` [Compound 73, 2,6-Difluoro-N-[4-(1-thiocarbamoyl-4-methyl-1,2,5,6-tetrahydro-pyridin-3-yl)-phenyl]-benzamide] it is 456 nM.
